Results as given in patent publication US5298494A, “Monosaccharides having anti-proliferation and anti-inflammatory activity, compositions and uses thereof” (Greenwich Pharmaceuticals Incorporated, priority 1993, dated 1994).

What was measured:
GS-109-V-20 skin cells = assay: Morphological examination of GS-109-V-20 cultures for drug-induced toxicity; type: cell-based, human
Experimental: (§1) After 3 days of culture, 1#uCi ^3 H-thymidine was added in 50 ul volume to each culture well of the microtiter plates. Eighteen hours later, each of the GS-109-V-20 cultures was examined morphologically for evidence of drug-induced toxicity such as cell rounding or granularity. The ^3 H-thymidine-pulsed cells were then precipitated and the amount of ^3 H-thymidine incorporation was counted on a liquid scintillation counter.

[1] = tested on: GS-109-V-20 human skin cell fibroblasts; assay: Fibroblast assay: proliferation of GS-109-V-20 skin cell fibroblasts; type: cell-based; settings: for effect on GS-109-V-20 fibroblast proliferation in words: text
Experimental: The effect of methyl 3-O-3'-(N',N'-dimethylamino-n-propyl)-6-deoxy-D-glucopyranoside on the proliferative capacity of human GS-109-V-20 skin fibroblasts was measured with the use of ^3 H-thymidine incorporation assay. Cultured skin cells were detached from the surface of tissue culture flasks mechanically with a Teflon scraper. The cells were washed, resuspended in incubation medium and the viabilities determined. These cells were then plated in triplicate at a density of 1×10^3 cells/0.1 ml/microtiter well. To these cells was added 0.1 ml incubation medium containing the methyl 3-O-3'-(N',N'-dimethylamino-n-propyl)-6-deoxy-D-glucopyranoside compound.
as §1
Methyl 3-O-3'-(N',N'-dimethylamino-n-propyl)-6-deoxy-D-glucopyranoside was suspended directly into the medium by extensive sonication, without being filter-sterilized. A range of doses of this compound was used to measure effects of this compound upon GS-109-V-20 cell proliferation. The following doses were used:
The human skin cell fibroblast line, GS-109-V-20, was obtained from the American Type Culture-Collection. […] These cells were selected for use because they are considered to exist in an initiated state, as opposed to being normal or transformed, and have a more extensive population doubling time and survival period in culture than do normal fibroblasts. In this regard, they would more closely reflect the biological characteristics of psoriatic or rheumatoid synovial fibroblasts which also proliferate more extensively than do normal fibroblasts, but not as extensively as immortalized transformed tumor cells.
The number of GS-109-V-20 cells was expanded for use in the described assays by culture in 25 cm^2 flasks at 37° C. in an atmosphere of 5% CO2 in air. At approximately 4-5 day intervals, or when confluence was reached, the cells were passaged. This was accomplished by detaching the cells by trypsinization, washing and reseeding the cells at a lower density into fresh tissue culture flasks.

[2] = tested on: LTB4 production by BUD-8 skin cell fibroblasts; assay: LTB4 production by BUD-8 skin cell fibroblasts (radioimmunoassay); type: cell-based, human; settings: concentration not given
Experimental: (§2) The effect of the compound of the present invention on the proliferative capacity of human BUD-8 skin fibroblasts was measured with the use of a ^3 H-thymidine incorporation assay using culture conditions which were similar to those used for a Con-A blastogenesis assay, described previously. Cultured skin cells were detached from the surface of tissue culture flasks mechanically with a Teflon scraper. The cells were washed, resuspended in incubation medium and the viabilities were determined. These cells were then plated in triplicate at a density of 2×10^3 cells/0.1 ml/microtiter well for the proliferation assay and a density of 1×10^4 cells/0.1 ml/microtiter well for the assays to quantitate PGE2 and LTB4. To these cells was added incubation medium containing indomethacin to inhibit prostaglandin production, or nordihydroguaiaretic acid (NDGA) to inhibit leukotriene production (positive controls).
(§3) After 18 hours of culture, samples of the BUD-8 skin cell supernatants were collected from one set of microtiter plates and frozen until assayed for PGE2 or for LTB4 content using the radioimmunoassays described below.
Levels of LTB4 in aliquots of BUD-8 skin cell cultures supernatants were quantitated by radioimmunoassay (New England Nuclear). Briefly, into each polyproplyene tube were mixed 0.1 ml anti-LTB4, 0.1. ml ^3 H-LTB4 and 0.1 ml LTB4 standard or LTB4 containing sample. The BUD-8 skin cell culture supernatants were used directly in the radioimmunoassay. Tubes were refrigerated overnight. A charcoal solution (0.5 ml of 0.5% charcoal Norit A) was added and each tube was centrifuged. The radioactivity in the supernatant was then counted in a liquid scintillation counter.

[3] = tested on: PGE2 production by BUD-8 skin cell fibroblasts; assay: PGE2 production by BUD-8 skin cell fibroblasts (radioimmunoassay); type: cell-based, human; settings: concentration not given
Experimental: as §2, §3
A radioinmunoassay (New England Nuclear) was used to quantitate PGE2 levels in BUD-8 skin cell culture supernatants. Briefly, into each polypropylene tube were mixed 0.1 ml anti-PGE2, 0.1 ml ^125 1-PGE2 and 0.1 ml PGE2 standard or PGE2 containing sample. The BUD-8 skin culture supernatants were diluted 1:2 prior to addition to the radioimmunoassay. Tubes were refrigerated overnight. A polyethylene glycol solution (16%, 6,000 m.w.) was then added to precipitate immune complexes and the radioactivity in the precipitate was counted in a gamma counter.

[4] = tested on: T lymphocytes (normal mouse spleen cells) stimulated with ConA; assay: Mouse Spleen Cell ConA Blastogenesis Assay; type: cell-based, mouse (C57Bl/6); settings: control compound, concentration not given
[5] = tested on: BUD-8 human skin fibroblasts; assay: Fibroblast assay: proliferation of BUD-8 skin cell fibroblasts; type: cell-based; settings: concentration not given
Experimental: The human skin cell fibroblast line, BUD-8 was obtained prior to each assay from the American Type Culture Collection. This is a fibroblast-like cell line which was originally derived from the normal skin of a person.
BUD-8 cell cultures were expanded for use in 25 cm^2 flasks at 37° C. in an atmosphere of 5% CO2 in air. At approximately 4-5 five day intervals, or when confluence was reached, the cells were passaged. This was accomplished by detaching the cells with a Teflon scraper, washing and reseeding the cells at a lower density into fresh tissue culture flasks.
as §2
After 3 days of culture, 1 uCi ^3 H-thymidine was added in a 50 ul volume to each culture well of the microtiter plates. Eighteen hours later, each of the BUD-8 cultures was examined morphologically for evidence of compound-induced toxicity such as cell rounding or granularity. The thymidine-pulsed cells were then precipitated and the amount of ^3 H-thymidine incorporated was counted in a liquid scintillation counter.
The concentrations of the compounds of the invention which were used in these assays were:
The incubation medium used for culturing the BUD-8 cells was RPMI-1640 medium containing 10% fetal bovine serum, 100 ug/ml streptomycin, 100 U/ml penicillin, 0.2M Hepes buffer solution, 5×10^-5 M 2-mercaptoethanol and 2 mM glutamine.

With `COC1O[C@H](C)[C@@H](O)[C@H](OCCCN(C)C)[C@H]1O` (stereo partly drawn) [V, Methyl 3-O-3'-(N',N'-dimethylamino-n-propyl)-6-deoxy-D-glucopyranoside] the “cytotoxicity in GS-109-V-20 cultures, in words” value (GS-109-V-20 skin cells) was “without evidence of cytotoxicity”, the “^3 H-Thymidine uptake by GS-109-V-20 skin cells” value ([1]; 0.001 ug/ml) was 2,557 ± 258 cpm and the “^3 H-Thymidine uptake by GS-109-V-20 skin cells” value ([1]; 0.01 ug/ml) was 976 ± 469 cpm. For the same compound, the “^3 H-Thymidine uptake by GS-109-V-20 skin cells” value ([1]; 0.1 ug/ml) was 1,052 ± 177 cpm, the “^3 H-Thymidine uptake by GS-109-V-20 skin cells” value ([1]; 1 ug/ml) was 1,237 ± 301 cpm and the “^3 H-Thymidine uptake by GS-109-V-20 skin cells” value ([1]; 2.5 ug/ml) was 1,044 ± 106 cpm. For the same compound, the “^3 H-Thymidine uptake by GS-109-V-20 skin cells” value ([1]; 10 ug/ml) was 900 ± 189 cpm, the “^3 H-Thymidine uptake by GS-109-V-20 skin cells” value ([1]; 25 ug/ml) was 946 ± 41 cpm and the “^3 H-Thymidine uptake by GS-109-V-20 skin cells” value ([1]; 100 ug/ml) was 647 ± 541 cpm. The inhibition at 0.001 µg/mL ([1]; Homo sapiens, Fibroblast, 0.001 ug/ml, read-out: % effect on GS-109-V-20 proliferation) was 12%, the inhibition at 0.01 µg/mL ([1]; Homo sapiens, Fibroblast, 0.01 ug/ml, read-out: % effect on GS-109-V-20 proliferation) was 66% and the inhibition at 0.1 µg/mL ([1]; Homo sapiens, Fibroblast, 0.1 ug/ml, read-out: % effect on GS-109-V-20 proliferation) was 64%. It also gave an inhibition at 1 µg/mL ([1]; Homo sapiens, Fibroblast, 1 ug/ml, read-out: % effect on GS-109-V-20 proliferation) of 58%, an inhibition at 2.5 µg/mL ([1]; Homo sapiens, Fibroblast, 2.5 ug/ml, read-out: % effect on GS-109-V-20 proliferation) of 64% and an inhibition at 10 µg/mL ([1]; Homo sapiens, Fibroblast, 10 ug/ml, read-out: % effect on GS-109-V-20 proliferation) of 69%. The inhibition at 25 µg/mL ([1]; Homo sapiens, Fibroblast, 25 ug/ml, read-out: % effect on GS-109-V-20 proliferation) was 68%, the inhibition at 100 µg/mL ([1]; Homo sapiens, Fibroblast, 100 ug/ml, read-out: % effect on GS-109-V-20 proliferation) was 78% and the “effect on GS-109-V-20 fibroblast proliferation in words” value ([1]; listed as Methyl 3-O-3'-(N',N'-dimethylamino-n-propyl)-6-deoxy-D-glucopyranoside) was “inhibitory effects on the proliferation of GS-109-V-20 human skin cell fibroblasts”. For the same compound, the “effect on GS-109-V-20 fibroblast proliferation in words” value ([1]; listed as methyl 3-O-3'-(N',N'-dimethylamino-n-propyl)-6-deoxy-D-glucopyranoside) was “A significant inhibitory effect was observed in a non-dose-dependent manner”.

In the case of `CC(Cc1ccc(O)c(O)c1)C(C)Cc1ccc(O)c(O)c1` (centres unmarked) [NDGA, nordihydroguaiaretic acid, reference compound], the “LTB4 in supernatant (positive control)” value [2] is reported as 19.9 ± 1.5 pg LTB4 100 ul supernatant, the “calculated LTB4 production/10^5 BUD-8 cells (positive control)” value [2] is reported as 794 pg per 10^5 cells and the “% effect on LTB4 production (positive control)” value ([2]; 1080 min) is reported as -45%. For the same compound, the “PGE2 in supernatant (positive control)” value [3] was 14.7 ± 0.8 pg PGE2 /50 ul supernatant, the “calculated PGE2 production/10^5 BUD-8 cells (positive control)” value [3] was 933 pg per 10^5 cells and the “% effect on PGE2 production (positive control)” value ([3]; 1080 min) was -8%. For the same compound, the “% effect on ConA blastogenic response (positive control)” value ([4]; ConA 1 ug/ml) was -14%, the “Blastogenic response of normal spleen cells to Con-A (positive control)” value ([4]; ConA 1 ug/ml) was 47.6 ± 5.0 × 10^-3 cpm and the “% effect on ConA blastogenic response (positive control)” value ([4]; ConA 4 ug/ml) was -24%. For the same compound, the “Blastogenic response of normal spleen cells to Con-A (positive control)” value ([4]; ConA 4 ug/ml) was 64.1 ± 9.2 × 10^-3 cpm, the “% effect on BUD-8 proliferation (positive control)” value [5] was -5% and the “^3 H-Thymidine uptake by BUD-8 skin cells (positive control)” value [5] was 6,925 ± 313 cpm. For the same compound, the “^3 H-Thymidine uptake by GS-109-V-20 skin cells (control compound)” value ([1]; 2 × 10^-6 M Indomethacin, 2 × 10^-6 N NDGA) was 3,179 ± 489 cpm.
